The source of these data is ChEMBL document CHEMBL5576094, “A Diterpenoid of the Medicinal Plant Andrographis paniculata Targets Cutaneous TRPV3 Channel and Relieves Itch” (J Nat Prod, 2024).

In assay [1] the target is T1, Transient receptor potential cation channel subfamily V member 3 (Homo sapiens, UniProt Q8NET8).
T1 sequence (Q8NET8 whole entry): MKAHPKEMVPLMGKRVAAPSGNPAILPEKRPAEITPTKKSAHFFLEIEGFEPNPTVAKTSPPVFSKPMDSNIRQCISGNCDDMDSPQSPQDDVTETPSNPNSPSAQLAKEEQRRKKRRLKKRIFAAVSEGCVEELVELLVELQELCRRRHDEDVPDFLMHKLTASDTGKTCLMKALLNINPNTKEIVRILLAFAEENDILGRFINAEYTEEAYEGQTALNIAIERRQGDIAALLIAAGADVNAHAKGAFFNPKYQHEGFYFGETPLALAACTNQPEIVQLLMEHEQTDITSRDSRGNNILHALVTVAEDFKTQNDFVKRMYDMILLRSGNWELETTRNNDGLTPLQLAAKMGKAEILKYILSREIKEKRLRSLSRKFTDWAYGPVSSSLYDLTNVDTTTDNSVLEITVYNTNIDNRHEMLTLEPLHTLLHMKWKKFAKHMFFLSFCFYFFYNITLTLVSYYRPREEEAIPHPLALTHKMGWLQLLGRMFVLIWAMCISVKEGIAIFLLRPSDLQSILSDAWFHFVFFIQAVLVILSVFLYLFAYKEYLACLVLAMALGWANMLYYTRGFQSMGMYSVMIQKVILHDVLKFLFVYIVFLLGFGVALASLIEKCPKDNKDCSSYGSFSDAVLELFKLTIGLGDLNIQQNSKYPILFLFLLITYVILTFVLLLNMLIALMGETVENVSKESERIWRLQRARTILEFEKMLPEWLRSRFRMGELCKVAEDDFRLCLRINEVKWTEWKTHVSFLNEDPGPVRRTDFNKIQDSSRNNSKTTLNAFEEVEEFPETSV
As to the kind of experiment: Inhibition of human TRPV3 expressed in HEK293 cells assessed as reduction in 2-APB induced channel current at voltage ramp from -100 to +100 mV by whole-cell patch clamp electrophysiology. It is filed as cell-based. Background: In patch-clamp work, channel activity is measured electrically.

Assay [2] is filed under the species Mus musculus. Put plainly: Antipruritic activity in carvacrol-induced scratching C57BL/6 mouse model assessed as inhibition of neck scratching behavior at 30 uM, ID pretreated for 30 mins followed by carvacrol stimulation and measured for 30 mins relative to control. It is filed as functional. Conditions: C57BL/6, 1 h, time 60 min.
The species named for assay [3] is Mus musculus. Put plainly: Antipruritic activity in carvacrol-induced scratching C57BL/6 mouse model assessed as inhibition of neck scratching behavior at 300 uM, ID pretreated for 30 mins followed by carvacrol stimulation and measured for 30 mins relative to control. It is filed as functional. The conditions noted are these: C57BL/6, 1 h, time 60 min.
Assay [4] is filed under the species Mus musculus. Put plainly: Antipruritic activity in histamine-induced scratching C57BL/6 mouse model assessed as inhibition of neck scratching behavior at 0.3 to 30 uM, ID pretreated for 30 mins followed by histamine stimulation and measured for 30 mins relative to control. Type of assay: functional. Conditions: dose 0.3-30 µM, time 60 min, 1 h.
For assay [5], the system named is Mus musculus. Put plainly: Antipruritic activity in histamine-induced scratching ICR mouse model assessed as number of scratching bouts at 10 mg/kg, po administered via gavage pretreated for 30 mins followed by histamine stimulation and measured for 30 mins (reference value: 123 +/- 6). It is filed as functional. The conditions noted are these: time 60 min, 1 h.

Assay [6] concerns Mus musculus. Put plainly: Antipruritic activity in histamine-induced scratching ICR mouse model assessed as inhibition of neck scratching behavior at 10 mg/kg, po administered via gavage pretreated for 30 mins followed by histamine stimulation and measured for 30 mins relative to control. Type of assay: functional. The conditions noted are these: 1 h, time 60 min.

The IC50 is the midpoint of a concentration-inhibition curve. Usually inhibition in vivo stands for the relative decrease from the control value, in per cent.

Consider `C[C@@H]1O[C@@H](O[C@@H]2[C@@H](O)[C@H](OCCc3ccc(O)c(O)c3)O[C@H](CO[C@@H]3OC[C@](O)(CO)[C@H]3O)[C@H]2OC(=O)/C=C/c2ccc(O)c(O)c2)[C@H](O)[C@H](O)[C@H]1O`, for which the IC50 in assay [1] was found to be 6.7 µM. For the same compound, the inhibition in vivo at 30 µM in the assay listed under Mus musculus [2] is ~56%. In addition, the inhibition in vivo at 300 µM in the assay listed under Mus musculus [3] turned out to be 77%. Moreover, the “inhibition (INH)” value in the assay listed under Mus musculus [4] came to 57%.

Turning to `CCOC(=O)N1CCC(=C2c3ccc(Cl)cc3CCc3cccnc32)CC1` [LORATADINE], in the assay with Mus musculus [5], the Activity was found to be 72. In addition, the inhibition in vivo at 10 mg/kg in the assay with Mus musculus [6] is ~40%.
